Results reported in US20250018047A1, “METHODS AND COMPOSITIONS FOR TARGETED PROTEIN DEGRADATION” (Ranok Therapeutics (Hangzhou) Co. Ltd., priority 2021, published 2025).
Counter-ions that a name gives are not always drawn.

Columns and labels:
[1] = tested on: A-427 human lung carcinoma; assay: CellTiter-Glo cancer cell line proliferation assay, A-427; format: cell-based; conditions: Homo sapiens, A-427, 24 hr, read-out: A427 at 24 hrs, IC50
In short: (§1)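 Cells plated at 4,000/well, grown 24 h at 37 °C/5% CO2, then exposed to compound concentration series (0.5% DMSO final) for 24 h. Viability read by CellTiter-Glo luminescence; IC50 values calculated.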

[2] = tested on: AsPC-1 human pancreatic adenocarcinoma; assay: CellTiter-Glo cancer cell line proliferation assay, AsPC-1; format: cell-based; conditions: Homo sapiens, ASPC1, 24 hr
In short: as §1

[3] = biological target: T1, KRAS(G12D)/SOS1 (Homo sapiens, UniProt P01116, G12D); assay: KRAS(G12D)/SOS1 homogeneous time-resolved fluorescence (HTRF) assay; format: binding; conditions: absence of GTP, 4° C. for 3 hr
T1 construct: purchased Cisbio 63ADK000CB16PEG
T1 sequence (P01116 1-188 isoform P01116-2 G12D): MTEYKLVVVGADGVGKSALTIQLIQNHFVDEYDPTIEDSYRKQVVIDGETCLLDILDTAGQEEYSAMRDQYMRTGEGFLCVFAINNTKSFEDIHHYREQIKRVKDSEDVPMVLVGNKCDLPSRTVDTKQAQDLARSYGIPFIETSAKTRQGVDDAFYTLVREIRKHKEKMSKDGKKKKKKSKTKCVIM
Protocol: The test compound was mixed and incubated with reaction components, incubated in a sealed plate at 4° C. for 3 hr and fluorescence was measured using a PerkinElmer Envision plate reader.

[4] = biological target: BA/F3-KRAS(G12D) murine pro-B cell line stably expressing KRAS(G12D) (Homo sapiens, UniProt P01116, G12D, cells depend on it); assay: CellTiter-Glo cancer cell line proliferation assay, BA/F3-KRAS(G12D); format: cell-based; conditions: 24 hr, read-out: BAF3 at 24 hrs, IC50
Chain of BA/F3-KRAS(G12D) murine pro-B cell line stably expressing KRAS(G12D) (P01116 whole entry G12D): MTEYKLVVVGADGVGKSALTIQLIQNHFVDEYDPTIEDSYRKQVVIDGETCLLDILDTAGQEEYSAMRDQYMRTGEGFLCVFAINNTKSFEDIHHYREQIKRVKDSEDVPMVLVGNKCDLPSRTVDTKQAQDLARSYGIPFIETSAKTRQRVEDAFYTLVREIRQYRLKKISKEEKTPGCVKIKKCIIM
Protocol: The following cancer cell lines were employed: AsPC-1 human pancreatic adenocarcinoma (ATCC, #CRL-1682); A-427 human lung carcinoma (ATCC, #HTB-53); BA/F3-KRAS(G12D) murine pro-B cell line stably expressing KRAS(G12D) (Precedo, Hefei, China). Cell lines were cultured according to ATCC and recommendations. BA/F3-KRAS(G12D) cells were cultured in RPMI 1640 media with 10% fetal calf serum, 100 units/mL penicillin and […] streptomycin, and 1% glutamine.
CellTiter-Glo® Reagent Cancer Cell Line Proliferation Assays
Cells were plated in 96-well tissue culture plates at 4,000 cells/well and incubated at 37° C./5% CO2 for 24 hr in 100 μl of media. 3-fold serial dilutions of each test compound were prepared ranging from 20 μM to 1.02 nM. Cells were then treated with test compounds at various concentrations with a final concentration of 0.5% DMSO/well, and then incubated at 37° C./5% CO2 for 24 hr. 100 μl of CellTiter-Glo® Reagent (Promega Corporation, Madison, WI) was added to each well and processed according manufacturer's protocol. Results were analyzed and IC50-values were calculated in GraphPad 7 software.

Structure (SMILES) | IC50 [1] [nM] | IC50 [2] [nM] | IC50 [3] [nM] | GI50 [4] [nM]
C#Cc1cccc2cccc(-c3ncc4c(N5CC6CCC(C5)N6)nc(OCCN5CCN(C(=O)C6CCN(c7ccc8c(c7)CN(C7CCC(=O)NC7=O)C8=O)CC6)CC5)nc4c3F)c12 (stereo not drawn) [Compound 17, 3-(5-(4-(4-(2-((4-(3,8-diazabicyclo[3.2.1]octan-3-yl)-7-(8-ethynylnaphthalen-1-yl)-8-fluoropyrido[4,3-d]pyrimidin-2-yl)oxy)ethyl)piperazine-1-carbonyl)piperidin-1-yl)-1-oxoisoindolin-2-yl)piperidine-2,6-dione formate] | > 1000 | > 1000 | < 100 | > 1000
CN1C[C@@H](N2CCC(C(=O)N3CCN(c4ccc5c(c4)C(=O)N(C4CCC(=O)NC4=O)C5=O)CC3)CC2)C[C@H]1COc1nc(N2CC3CCC(C2)N3)c2cnc(-c3cccc4ccccc34)c(F)c2n1 (stereo partly drawn) [Compound 19, 5-(4-(1-((3S,5S)-5-(((4-(3,8-diazabicyclo[3.2.1]octan-3-yl)-8-fluoro-7-(naphthalen-1-yl)pyrido[4,3-d]pyrimidin-2-yl)oxy)methyl)-1-methylpyrrolidin-3-yl)piperidine-4-carbonyl)piperazin-1-yl)-2-(2,6-dioxopiperidin-3-yl)isoindoline-1,3-dione formate] | > 1000 | > 1000 | 100 to 1000 | > 1000
CN1C[C@@H](N2CCC(C(=O)NCCOCCOc3ccc4c(c3)C(=O)N(C3CCC(=O)NC3=O)C4=O)CC2)C[C@H]1COc1nc(N2CC3CCC(C2)N3)c2cnc(-c3cccc4ccccc34)c(F)c2n1 (stereo partly drawn) [Compound 21, 1-((3S,5S)-5-(((4-(3,8-diazabicyclo[3.2.1]octan-3-yl)-8-fluoro-7-(naphthalen-1-yl)pyrido[4,3-d]pyrimidin-2-yl)oxy)methyl)-1-methylpyrrolidin-3-yl)-N-(2-(2-((2-(2,6-dioxopiperidin-3-yl)-1,3-dioxoisoindolin-5-yl)oxy)ethoxy)ethyl)piperidine-4-carboxamide formate] | > 1000 | > 1000 | 100 to 1000 | > 1000
CN1C[C@@H](N2CCC(C(=O)NCCOc3ccc4c(c3)C(=O)N(C3CCC(=O)NC3=O)C4=O)CC2)C[C@H]1COc1nc(N2CC3CCC(C2)N3)c2cnc(-c3cccc4ccccc34)c(F)c2n1 (stereo partly drawn) [Compound 22, 1-((3S,5S)-5-(((4-(3,8-diazabicyclo[3.2.1]octan-3-yl)-8-fluoro-7-(naphthalen-1-yl)pyrido[4,3-d]pyrimidin-2-yl)oxy)methyl)-1-methylpyrrolidin-3-yl)-N-(2-((2-(2,6-dioxopiperidin-3-yl)-1,3-dioxoisoindolin-5-yl)oxy)ethyl)piperidine-4-carboxamide formate] | > 1000 | > 1000 | > 1000 | > 1000
Cc1ncsc1-c1ccc(CNC(=O)[C@@H]2C[C@@H](O)CN2C(=O)[C@@H](NC(=O)C2CCN([C@H]3C[C@@H](COc4nc(N5CC6CCC(C5)N6)c5cnc(-c6cccc7ccccc67)c(F)c5n4)N(C)C3)CC2)C(C)(C)C)cc1 [Compound 23, 1-((3S,5S)-5-(((4-(3,8-diazabicyclo[3.2.1]octan-3-yl)-8-fluoro-7-(naphthalen-1-yl)pyrido[4,3-d]pyrimidin-2-yl)oxy)methyl)-1-methylpyrrolidin-3-yl)-N—((S)-1-((2S,4R)-4-hydroxy-2-((4-(4-methylthiazol-5-yl)benzyl)carbamoyl)pyrrolidin-1-yl)-3,3-dimethyl-1-oxobutan-2-yl)piperidine-4-carboxamide formate] | > 1000 | > 1000 | > 1000 | > 1000
Cc1ncsc1-c1ccc(CNC(=O)[C@@H]2C[C@@H](O)CN2C(=O)[C@@H](NC(=O)C2CCN([C@H]3C[C@@H](COc4nc(N5CC6CCC(C5)N6)c5cnc(-c6cccc7cccc(Cl)c67)c(F)c5n4)N(C)C3)CC2)C(C)(C)C)cc1 [Compound 24, 1-((3S,5S)-5-(((4-(3,8-diazabicyclo[3.2.1]octan-3-yl)-7-(8-chloronaphthalen-1-yl)-8-fluoropyrido[4,3-d]pyrimidin-2-yl)oxy)methyl)-1-methylpyrrolidin-3-yl)-N—((S)-1-((2S,4R)-4-hydroxy-2-((4-(4-methylthiazol-5-yl)benzyl)carbamoyl)pyrrolidin-1-yl)-3,3-dimethyl-1-oxobutan-2-yl)piperidine-4-carboxamide formate] | > 1000 | > 1000 | 100 to 1000 | > 1000
CN1C[C@@H](N2CCC(C(=O)Nc3ccc4c(c3)C(=O)N(C3CCC(=O)NC3=O)C4=O)CC2)C[C@H]1COc1nc(N2CC3CCC(C2)N3)c2cnc(-c3cccc4ccccc34)c(F)c2n1 (stereo partly drawn) [Compound 25, 1-((3S,5S)-5-(((4-(3,8-diazabicyclo[3.2.1]octan-3-yl)-8-fluoro-7-(naphthalen-1-yl)pyrido[4,3-d]pyrimidin-2-yl)oxy)methyl)-1-methylpyrrolidin-3-yl)-N-(2-(2,6-dioxopiperidin-3-yl)-1,3-dioxoisoindolin-5-yl)piperidine-4-carboxamide formate] | > 1000 | > 1000 | < 100 | > 1000
Cc1ncsc1-c1ccc(CNC(=O)[C@@H]2C[C@@H](O)CN2C(=O)[C@@H](NC(=O)CCCNC(=O)C2CCN([C@H]3C[C@@H](COc4nc(N5CC6CCC(C5)N6)c5cnc(-c6cccc7cccc(Cl)c67)c(F)c5n4)N(C)C3)CC2)C(C)(C)C)cc1 [Compound 26, 1-((3S,5S)-5-(((4-(3,8-diazabicyclo[3.2.1]octan-3-yl)-7-(8-chloronaphthalen-1-yl)-8-fluoropyrido[4,3-d]pyrimidin-2-yl)oxy)methyl)-1-methylpyrrolidin-3-yl)-N-(4-(((S)-1-((2S,4R)-4-hydroxy-2-((4-(4-methylthiazol-5-yl)benzyl)carbamoyl)pyrrolidin-1-yl)-3,3-dimethyl-1-oxobutan-2-yl)amino)-4-oxobutyl)piperidine-4-carboxamide] | > 1000 | > 1000 | < 100 | > 1000
Cc1ncsc1-c1ccc(CNC(=O)[C@@H]2C[C@@H](O)CN2C(=O)[C@@H](NC(=O)CCNC(=O)C2CCN([C@H]3C[C@@H](COc4nc(N5CC6CCC(C5)N6)c5cnc(-c6cccc7cccc(Cl)c67)c(F)c5n4)N(C)C3)CC2)C(C)(C)C)cc1 [Compound 27, 1-((3S,5S)-5-(((4-(3,8-diazabicyclo[3.2.1]octan-3-yl)-7-(8-chloronaphthalen-1-yl)-8-fluoropyrido[4,3-d]pyrimidin-2-yl)oxy)methyl)-1-methylpyrrolidin-3-yl)-N-(3-(((S)-1-((2S,4R)-4-hydroxy-2-((4-(4-methylthiazol-5-yl)benzyl)carbamoyl)pyrrolidin-1-yl)-3,3-dimethyl-1-oxobutan-2-yl)amino)-3-oxopropyl)piperidine-4-carboxamide formate] | > 1000 | > 1000 | 100 to 1000 | > 1000
C#Cc1cccc2cccc(-c3ncc4c(N5CC6CCC(C5)N6)nc(OCC5(CN6CCN(Cc7ccc8c(c7)C(=O)N(C7CCC(=O)NC7=O)C8=O)CC6)CC5)nc4c3F)c12 (stereo not drawn) [Compound 28, 5-((4-((1-(((4-(3,8-diazabicyclo[3.2.1]octan-3-yl)-7-(8-ethynylnaphthalen-1-yl)-8-fluoropyrido[4,3-d]pyrimidin-2-yl)oxy)methyl)cyclopropyl)methyl)piperazin-1-yl)methyl)-2-(2,6-dioxopiperidin-3-yl)isoindoline-1,3-dione formate] | > 1000 | > 1000 | < 100 | > 1000
C#Cc1cccc2cccc(-c3ncc4c(N5CC6CCC(C5)N6)nc(OCC5(CN6CCN(CC7CCN(c8cccc9c8C(=O)N(C8CCC(=O)NC8=O)C9=O)CC7)CC6)CC5)nc4c3F)c12 (stereo not drawn) [Compound 29, 4-(4-((4-((1-(((4-(3,8-diazabicyclo[3.2.1]octan-3-yl)-7-(8-ethynylnaphthalen-1-yl)-8-fluoropyrido[4,3-d]pyrimidin-2-yl)oxy)methyl)cyclopropyl)methyl)piperazin-1-yl)methyl)piperidin-1-yl)-2-(2,6-dioxopiperidin-3-yl)isoindoline-1,3-dione formate] | > 1000 | > 1000 | < 100 | 100 to 1000
C#Cc1cccc2cccc(-c3ncc4c(N5CC6CCC(C5)N6)nc(OCC5(CN6CCN(C(=O)C7CCN(c8ccc9c(c8)C(=O)N(C8CCC(=O)NC8=O)C9=O)CC7)CC6)CC5)nc4c3F)c12 (stereo not drawn) [Compound 30, 5-(4-(4-((1-(((4-(3,8-diazabicyclo[3.2.1]octan-3-yl)-7-(8-ethynylnaphthalen-1-yl)-8-fluoropyrido[4,3-d]pyrimidin-2-yl)oxy)methyl)cyclopropyl)methyl)piperazine-1-carbonyl)piperidin-1-yl)-2-(2,6-dioxopiperidin-3-yl)isoindoline-1,3-dione formate] | > 1000 | > 1000 | < 100 | > 1000
